“And” between values parts separate entries of the source, which are not always exact repeats. Equal entries are not always repeated. Toxic doses and inconclusive results are not listed. Cut-off read from the data, not from the text of the source: active = T/C of 150% or more; inactive = T/C below 125%.
Test system: L1210 leukemia ip in BDF1 mice, survival T/C
Assay: NCI In Vivo Anticancer Drug Screen. Data for tumor model L1210 Leukemia (intraperitoneal) in B6D2F1 (BDF1) mice
Conditions: endpoint: mean survival time, higher = longer survival
How it was run: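 Antitumor effect is assessed in tumor-bearing animals. Survival in the compound arm is compared with a vehicle-dosed control arm and expressed as their quotient.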

[1] = dose: 100.0 mg/kg/injection, schedule: Q04DX003 (ip), vehicle: Klucel (hydroxypropylcellulose) (HPC)
[2] = dose: 100.0 mg/kg/injection, schedule: Q04DX002 (ip), vehicle: saline with Tween-80
[3] = dose: 100.0 mg/kg/injection, schedule: Q01DX001 (ip), vehicle: carboxymethylcellulose (CMC)
[4] = dose: 200.0 mg/kg/injection, schedule: Q01DX001 (ip), vehicle: carboxymethylcellulose (CMC)
[5] = dose: 400.0 mg/kg/injection, schedule: Q01DX001 (ip), vehicle: carboxymethylcellulose (CMC)
[6] = dose: 100.0 mg/kg/injection, schedule: Q01DX009 (ip), vehicle: Klucel (hydroxypropylcellulose) (HPC)
[7] = dose: 200.0 mg/kg/injection, schedule: Q04DX003 (ip), vehicle: Klucel (hydroxypropylcellulose) (HPC)
[8] = dose: 400.0 mg/kg/injection, schedule: Q04DX003 (ip), vehicle: Klucel (hydroxypropylcellulose) (HPC)
[9] = dose: 100.0 mg/kg/injection, schedule: Q01DX001 (ip), vehicle: saline
[10] = dose: 200.0 mg/kg/injection, schedule: Q01DX001 (ip), vehicle: saline
[11] = dose: 400.0 mg/kg/injection, schedule: Q01DX001 (ip), vehicle: saline

Measured: T/C

CCSCC1OC(n2cnc3c(N)nc(F)nc32)C(O)C1O (stereo unspecified)
inactive: dose: 25.0 mg/kg/injection, schedule: Q01DX001 (ip), vehicle: Klucel (hydroxypropylcellulose) (HPC) 98 % of control | dose: 25.0 mg/kg/injection, schedule: Q01DX009 (ip), vehicle: Klucel (hydroxypropylcellulose) (HPC) 98 % of control | dose: 25.0 mg/kg/injection, schedule: Q04DX003 (ip), vehicle: Klucel (hydroxypropylcellulose) (HPC) 97 % of control | dose: 50.0 mg/kg/injection, schedule: Q01DX001 (ip), vehicle: Klucel (hydroxypropylcellulose) (HPC) 104 % of control | dose: 50.0 mg/kg/injection, schedule: Q01DX009 (ip), vehicle: Klucel (hydroxypropylcellulose) (HPC) 96 % of control | dose: 50.0 mg/kg/injection, schedule: Q04DX003 (ip), vehicle: Klucel (hydroxypropylcellulose) (HPC) 103 % of control | dose: 100.0 mg/kg/injection, schedule: Q01DX001 (ip), vehicle: Klucel (hydroxypropylcellulose) (HPC) 97 % of control and 102 % of control | [1] 92 % of control | dose: 200.0 mg/kg/injection, schedule: Q01DX001 (ip), vehicle: Klucel (hydroxypropylcellulose) (HPC) 86 % of control

N=C(N)SCC(=O)c1ccc([N+](=O)[O-])cc1
inactive: [2] 88 % of control | dose: 200.0 mg/kg/injection, schedule: Q04DX002 (ip), vehicle: saline with Tween-80 95 % of control

CN=C(NN(C)C)c1ccc(NC(=O)c2ccc(C(=O)Nc3ccc(C(=NC)NN(C)C)cc3)cc2)cc1
inactive: dose: 2.5 mg/kg/injection, schedule: Q01DX Z (ip), vehicle: carboxymethylcellulose (CMC) 97 % of control | dose: 5.0 mg/kg/injection, schedule: Q01DX Z (ip), vehicle: carboxymethylcellulose (CMC) 111 % of control | dose: 25.0 mg/kg/injection, schedule: Q01DX Z (oral), vehicle: carboxymethylcellulose (CMC) 116 % of control | dose: 50.0 mg/kg/injection, schedule: Q01DX Z (oral), vehicle: carboxymethylcellulose (CMC) 110 % of control | dose: 100.0 mg/kg/injection, schedule: Q01DX Z (oral), vehicle: carboxymethylcellulose (CMC) 102 % of control | dose: 200.0 mg/kg/injection, schedule: Q01DX Z (oral), vehicle: carboxymethylcellulose (CMC) 104 % of control

CC(=O)Oc1cc([N+](=O)[O-])ccc1C(=O)O
inactive: dose: 100.0 mg/kg/injection, schedule: Q04DX003 (ip), vehicle: saline with Tween-80 96 % of control | dose: 200.0 mg/kg/injection, schedule: Q04DX003 (ip), vehicle: saline with Tween-80 91 % of control | dose: 400.0 mg/kg/injection, schedule: Q04DX003 (ip), vehicle: saline with Tween-80 94 % of control

CC12CCC(=O)CC1CCC1C2CCC2(C)C(C(=O)O)CCC12 (stereo unspecified)
inactive: dose: 25.0 mg/kg/injection, schedule: Q04DX002 (ip), vehicle: saline with Tween-80 99 % of control | dose: 50.0 mg/kg/injection, schedule: Q04DX002 (ip), vehicle: saline with Tween-80 96 % of control | [2] 108 % of control

Nc1nccs1
inactive: dose: 0.75 mg/kg/injection, schedule: Q01DX009 (ip), vehicle: carboxymethylcellulose (CMC) 100 % of control | dose: 1.5 mg/kg/injection, schedule: Q01DX009 (ip), vehicle: carboxymethylcellulose (CMC) 103 % of control | dose: 1.5 mg/kg/injection, schedule: Q04DX002 (ip), vehicle: saline with Tween-80 93 % of control | dose: 3.0 mg/kg/injection, schedule: Q01DX009 (ip), vehicle: carboxymethylcellulose (CMC) 100 % of control | dose: 3.0 mg/kg/injection, schedule: Q04DX002 (ip), vehicle: saline with Tween-80 90 % of control | dose: 3.5 mg/kg/injection, schedule: Q04DX002 (ip), vehicle: saline with Tween-80 91 % of control | dose: 6.0 mg/kg/injection, schedule: Q01DX009 (ip), vehicle: carboxymethylcellulose (CMC) 100 % of control | dose: 12.0 mg/kg/injection, schedule: Q01DX009 (ip), vehicle: carboxymethylcellulose (CMC) 103 % of control | dose: 12.0 mg/kg/injection, schedule: Q04DX002 (ip), vehicle: saline with Tween-80 101 % of control and 91 % of control

CCCO[Si](C)(C)CCl
inactive: dose: 50.0 mg/kg/injection, schedule: Q01DX001 (ip), vehicle: carboxymethylcellulose (CMC) 92 % of control | [3] 92 % of control | [4] 92 % of control | [5] 98 % of control

O=[N+]([O-])c1cccc(N=Nc2ccc(O)cc2)c1
inactive: [6] 102 % of control | dose: 130.0 mg/kg/injection, schedule: Q01DX009 (ip), vehicle: Klucel (hydroxypropylcellulose) (HPC) 106 % of control

C[C@]12CCC(=O)C=C1CC[C@H]1[C@@H]3CC[C@](O)(C(=O)CO)[C@@]3(C)CC(=O)[C@@]12SC(N)=O
inactive: dose: 100.0 mg/kg/injection, schedule: Q01DX001 (ip), vehicle: steriod suspending solution 92 % of control | dose: 200.0 mg/kg/injection, schedule: Q01DX001 (ip), vehicle: steriod suspending solution 92 % of control | dose: 400.0 mg/kg/injection, schedule: Q01DX001 (ip), vehicle: steriod suspending solution 104 % of control

Nc1c(Br)c(Cl)cc2c1-c1ccc(Cl)cc1C2S (stereo unspecified)
inactive: [3] 104 % of control | [4] 95 % of control | [5] 90 % of control

CC1CCC(C(C)C)C(NCc2ccccc2O)C1 (stereo unspecified)
inactive: [1] 89 % of control

CNC(=O)Oc1cc(OC)ccc1C(=O)c1ccccc1
inactive: [6] 94 % of control | dose: 200.0 mg/kg/injection, schedule: Q01DX009 (ip), vehicle: Klucel (hydroxypropylcellulose) (HPC) 96 % of control | dose: 400.0 mg/kg/injection, schedule: Q01DX009 (ip), vehicle: Klucel (hydroxypropylcellulose) (HPC) 97 % of control

CNCC(O)c1cccc(O)c1 (stereo unspecified)
inactive: dose: 1.56 mg/kg/injection, schedule: Q01DX009 (ip), vehicle: saline 94 % of control | dose: 3.12 mg/kg/injection, schedule: Q01DX009 (ip), vehicle: saline 98 % of control | dose: 3.12 mg/kg/injection, schedule: Q04DX003 (ip), vehicle: saline 109 % of control | dose: 6.25 mg/kg/injection, schedule: Q01DX009 (ip), vehicle: saline 94 % of control | dose: 6.25 mg/kg/injection, schedule: Q04DX003 (ip), vehicle: saline 104 % of control | dose: 12.5 mg/kg/injection, schedule: Q01DX009 (ip), vehicle: saline 122 % of control | dose: 12.5 mg/kg/injection, schedule: Q04DX003 (ip), vehicle: saline 96 % of control | dose: 25.0 mg/kg/injection, schedule: Q01DX009 (ip), vehicle: saline 100 % of control | dose: 25.0 mg/kg/injection, schedule: Q04DX003 (ip), vehicle: saline 113 % of control

CCCCN=Cc1cc([N+](=O)[O-])ccc1O.CCCCN=Cc1cc([N+](=O)[O-])ccc1O.[Ni]
inactive: dose: 12.5 mg/kg/injection, schedule: Q01DX009 (ip), vehicle: saline with Tween-80 98 % of control | dose: 25.0 mg/kg/injection, schedule: Q01DX009 (ip), vehicle: saline with Tween-80 94 % of control | dose: 50.0 mg/kg/injection, schedule: Q01DX009 (ip), vehicle: saline with Tween-80 86 % of control

CCCCCCCC/C=C\CCCCCCCC(=O)OCCCCCCCCCCCCCCC
inactive: dose: 100.0 mg/kg/injection, schedule: Q01DX009 (ip), vehicle: other 96 % of control | dose: 200.0 mg/kg/injection, schedule: Q01DX009 (ip), vehicle: other 96 % of control | dose: 400.0 mg/kg/injection, schedule: Q01DX009 (ip), vehicle: other 96 % of control

CCCOC(=O)COc1ccc(Cl)cc1C
inactive: [1] 96 % of control | [7] 96 % of control | [8] 91 % of control

c1ccc2c(c1)ccc1c3ccc4ccccc4c3[nH]c21
inactive: [9] 95 % of control | [10] 90 % of control | [11] 94 % of control

NC1=NC=NCN1c1ccc(N)cc1
inactive: dose: 25.0 mg/kg/injection, schedule: Q01DX001 (ip), vehicle: saline with Tween-80 96 % of control | dose: 50.0 mg/kg/injection, schedule: Q01DX001 (ip), vehicle: saline with Tween-80 102 % of control | dose: 100.0 mg/kg/injection, schedule: Q01DX001 (ip), vehicle: saline with Tween-80 104 % of control

O=C1NC(=O)C2(CCN(c3ccccc3)CC2)C(=O)N1
inactive: [9] 94 % of control | [10] 96 % of control | [11] 96 % of control

C#CC(O)C1OC(C)(C)OC1C1COC(C)(C)O1 (stereo unspecified)
inactive: [1] 97 % of control | [7] 92 % of control | [8] 94 % of control

O=C1CCCC(=O)CCC1
inactive: dose: 50.0 mg/kg/injection, schedule: Q04DX002 (ip), vehicle: saline 93 % of control | dose: 100.0 mg/kg/injection, schedule: Q04DX002 (ip), vehicle: saline 93 % of control | dose: 200.0 mg/kg/injection, schedule: Q04DX002 (ip), vehicle: saline 104 % of control

Source: PubChem BioAssay AID248 (DTP/NCI, 2004)
